In brackets after ≈: the same amount, converted by molar mass.
Conditions: for aqueous solubility: pH 6.8

Structure (SMILES)	intrinsic clearance, human liver microsomes	intrinsic clearance, rat liver microsomes	aqueous solubility	MDR1-MDCK efflux ratio	fraction unbound, human plasma	fraction unbound, rat plasma
Clc1ccc(CSc2nc(-c3ccccc3)cs2)cn1	221 mL/min/kg	2260 mL/min/kg	–	–	–	–
Cc1cc(C(=O)Nc2ncccc2C)c2ccccc2n1	13.7 mL/min/kg	58.3 mL/min/kg	44 µg/mL (≈ 159 µM)	–	–	–
CC(C)c1nnc(NCc2cc(F)cc(F)c2)o1	≤ 4.74 mL/min/kg	111 mL/min/kg	–	0.786	–	–
COc1ccc(NC(=O)CN2CCCC2)cc1	≤ 4.74 mL/min/kg	1850 mL/min/kg	–	–	–	–
Cc1cccnc1CNC(=O)c1ccc(Cl)s1	39.6 mL/min/kg	399 mL/min/kg	–	–	–	–
CN(c1ncccc1CNc1nc(Nc2ccc3c(c2)CC(=O)N3)ncc1C(F)(F)F)S(C)(=O)=O	32.2 mL/min/kg	94.5 mL/min/kg	94.4 µg/mL (≈ 186 µM)	–	–	–
COc1ccc(-c2cnn3c(N)c(-c4ccccc4)cnc23)cc1OC	–	–	0.19 µg/mL (≈ 0.549 µM)	0.459	–	–
COc1cccc(OC)c1-c1ccc(OCCN2CCCC2)cc1	≤ 4.74 mL/min/kg	2290 mL/min/kg	–	1.4	–	–
O=C(Cc1ccc(Cl)c(Cl)c1)N1CC(n2ccnn2)C1	≤ 4.74 mL/min/kg	51.8 mL/min/kg	31 µg/mL (≈ 99.7 µM)	2.09	–	–
O=C(CCn1ccc2ccccc21)N1CCC(n2c(=O)[nH]c3ccccc32)CC1	269 mL/min/kg	5450 mL/min/kg	–	–	–	–
CCOC(=O)c1c(C)[nH]c(CN(Cc2ccccc2)C(=O)c2ccccc2Cl)c1C	311 mL/min/kg	1490 mL/min/kg	5.15 µg/mL (≈ 12.1 µM)	2.14	–	–
COc1ccc(Cl)cc1-c1cccc(C(=O)NCCN2CCCC2=O)c1	106 mL/min/kg	875 mL/min/kg	–	6.01	–	–
Cc1nn(-c2ccccc2)c(C)c1CN	–	–	20.2 µg/mL (≈ 101 µM)	–	–	–
NC(=O)COc1ccccc1-c1ccccc1	25.9 mL/min/kg	75.6 mL/min/kg	39 µg/mL (≈ 172 µM)	0.621	–	–
CCn1nccc1CNc1nnc(-c2ccc(OC)cc2)o1	6.62 mL/min/kg	76.2 mL/min/kg	27.1 µg/mL (≈ 90.6 µM)	1.89	–	–
Cc1cc(C(=O)Nc2cccc3ncccc23)on1	≤ 4.74 mL/min/kg	11.1 mL/min/kg	45.4 µg/mL (≈ 179 µM)	0.559	–	–
Cc1cccc(Cl)c1-n1c(C)n[nH]c1=O	–	–	16.1 µg/mL (≈ 72.1 µM)	–	–	–
Cc1ccc(C(=O)C2CCN(CC(=O)NC(=O)Nc3ccccc3)CC2)c(C)c1	64.3 mL/min/kg	936 mL/min/kg	–	0.559	–	–
N#Cc1ccc2ncnc(N[C@H]3CC[C@H](N4CCOCC4)CC3)c2c1	9.63 mL/min/kg	49.2 mL/min/kg	–	24.6	–	–
Cc1ccc(-c2ccc(-c3nccn3CCCn3cnnc3)o2)cc1	15.7 mL/min/kg	541 mL/min/kg	36.8 µg/mL (≈ 110 µM)	123	–	–
O=C(c1ccc(O)nc1)N1CCN(c2ncccn2)CC1	≤ 4.74 mL/min/kg	≤ 10.7 mL/min/kg	43.1 µg/mL (≈ 151 µM)	7	–	–

Structure (SMILES)	intrinsic clearance, human liver microsomes	intrinsic clearance, rat liver microsomes	aqueous solubility	MDR1-MDCK efflux ratio	fraction unbound, human plasma	fraction unbound, rat plasma
Cc1c(-c2ccccc2)oc2c(C(=O)NCCCN3CCCCC3)cccc2c1=O	13.3 mL/min/kg	106 mL/min/kg	48.7 µg/mL (≈ 120 µM)	11	–	–
CCN1CCCN(C(=O)Nc2ccc(COC3CCCC3)cc2)CC1	6.32 mL/min/kg	287 mL/min/kg	–	9.16	–	–
O=C(c1cccs1)N1CCCC(C(=O)N2Cc3ccccc3C(c3ccccc3)C2)C1 (configuration not stated)	767 mL/min/kg	4910 mL/min/kg	24.7 µg/mL (≈ 57.4 µM)	–	–	–
CCN(Cc1nc(C)no1)C(=O)c1cc(C)c(C)n(C)c1=O	≤ 4.74 mL/min/kg	≤ 10.7 mL/min/kg	–	82.6	–	–
COc1cccc(Oc2ccc(NC(=O)CN3CCOCC3)cn2)c1	≤ 4.74 mL/min/kg	138 mL/min/kg	–	1.26	–	–
N#Cc1ccc(C(=O)N2CCCO2)nc1	37.6 mL/min/kg	1020 mL/min/kg	–	0.487	–	–
COC(=O)C1=NOC2(CCN(CCCCCF)CC2)C1	199 mL/min/kg	713 mL/min/kg	–	0.463	–	–
O=C(CNc1cc(N2CCCC2=O)ccc1F)N1CCCCCC1	23.8 mL/min/kg	393 mL/min/kg	–	2.68	–	–
CC(C)C[C@H](CO)Nc1nc(S[C@@H](C)c2ccccc2)nc2nc(N)sc12	40.2 mL/min/kg	329 mL/min/kg	–	–	–	–
Cc1ccc(C#N)c(NC(=O)CCc2ccccc2)n1	11.1 mL/min/kg	240 mL/min/kg	–	–	–	–
Cc1cc(C)cc(C(=O)Nc2c(C#N)cnn2C)c1	27.3 mL/min/kg	80.2 mL/min/kg	38.2 µg/mL (≈ 150 µM)	1.1	–	–
COc1cccc(CN(C)c2cc(N3CCCC3)ncn2)n1	128 mL/min/kg	4460 mL/min/kg	–	0.683	–	–
N#Cc1ccc(COc2cccc(C3CCN(Cc4nc5ccc(C(=O)O)cc5n4C[C@@H]4CCO4)CC3)n2)c(F)c1	–	–	–	35.5	0.0253	0.0205
Cc1nc2ccc(NC(=O)c3sc(-c4ccccn4)nc3C)cc2s1	10.2 mL/min/kg	38.5 mL/min/kg	1.3 µg/mL (≈ 3.55 µM)	0.685	–	–
Cc1ccc2nc(C)c(-c3nc(C)nn3CCO)cc2c1	≤ 4.74 mL/min/kg	19.3 mL/min/kg	27 µg/mL (≈ 95.6 µM)	9.02	–	–
CNc1ncc(-c2nc(C3(c4ccccc4)CC3)nn2C(C)(C)C)cn1	61.5 mL/min/kg	878 mL/min/kg	3.82 µg/mL (≈ 11 µM)	0.995	–	–
O=C(c1ccc2oc(CCCc3ccccc3)nc2c1)N1CCC(Oc2cccnc2)CC1	679 mL/min/kg	2090 mL/min/kg	24.3 µg/mL (≈ 55 µM)	1.48	–	–
N#CCCn1ncnc1-c1cccc(C#N)c1	≤ 4.74 mL/min/kg	≤ 10.7 mL/min/kg	–	–	–	–
CCN1CCC(CNC(=O)c2cc(C)nc3cc(F)ccc23)CC1	≤ 4.74 mL/min/kg	≤ 10.7 mL/min/kg	37.2 µg/mL (≈ 113 µM)	25.4	–	–
CCn1ncc(CN2CCC(c3nc(N(C)C)ncc3-c3ccc(OC)cc3)CC2)c1C	227 mL/min/kg	831 mL/min/kg	52.6 µg/mL (≈ 121 µM)	15.6	–	–
c1ccc(CCn2cnc3c2CCN(c2ncccn2)C3)cc1	206 mL/min/kg	2510 mL/min/kg	41 µg/mL (≈ 134 µM)	0.802	–	–

Structure (SMILES)	intrinsic clearance, human liver microsomes	intrinsic clearance, rat liver microsomes	aqueous solubility	MDR1-MDCK efflux ratio	fraction unbound, human plasma	fraction unbound, rat plasma
Cc1nc(N2CCOc3ccccc3C2)c2cnn(C)c2n1	62.7 mL/min/kg	272 mL/min/kg	42.8 µg/mL (≈ 145 µM)	0.513	–	–
Cc1ccc(NC(=O)OCC(F)(F)F)cn1	≤ 4.74 mL/min/kg	35.2 mL/min/kg	–	0.584	–	–
Cc1nc(C)c(C(=O)NCc2ncoc2C)s1	≤ 4.74 mL/min/kg	≤ 10.7 mL/min/kg	–	–	–	–
CC(C)(C)c1nc(O)c2nnn(C3CCNCC3)c2n1	≤ 4.74 mL/min/kg	≤ 10.7 mL/min/kg	–	–	–	–
NC[C@H]1CC[C@@H](C(=O)Nc2ccc3[nH]ncc3c2)O1	17.7 mL/min/kg	–	–	1.14	0.959	–
COc1cccc(-c2nnn(-c3ncnc4sc5c(c34)CCC5)n2)c1	–	–	0.26 µg/mL (≈ 0.742 µM)	–	–	–
COc1ccc(-c2cn3c4ccccc4nc3n2CCO)cc1	42.2 mL/min/kg	1190 mL/min/kg	47 µg/mL (≈ 153 µM)	0.389	–	–
CN(Cc1cnccn1)C(=O)c1cc(-c2ccc(F)cc2)on1	–	–	16 µg/mL (≈ 51.2 µM)	–	–	–
Cc1cccn(Cc2ccccc2F)c1=O	≤ 4.74 mL/min/kg	60.7 mL/min/kg	28.2 µg/mL (≈ 130 µM)	0.634	–	–
CC(=O)NCCOc1ccc2ccccc2n1	12.9 mL/min/kg	89.1 mL/min/kg	–	–	–	–
CN(C)C1(CNC(=O)N2CCC=C(c3ccccc3)C2)CCOCC1	34.8 mL/min/kg	874 mL/min/kg	–	35.5	–	–
CC(C)(C)C(=O)N1CCC(CN2C(=O)C(=O)N(C3CCCC3)C2=O)CC1	22.1 mL/min/kg	288 mL/min/kg	66.8 µg/mL (≈ 184 µM)	2.03	–	–
CC(=O)N1CCC(Nc2ncnc3cc(-c4ccc(Br)cc4)sc23)CC1	6.41 mL/min/kg	43.2 mL/min/kg	10.2 µg/mL (≈ 23.6 µM)	5.91	–	–
CC(C)c1nnc(-c2ccc(-c3ccccc3)nc2)n1-c1cccc2nonc12	8.27 mL/min/kg	518 mL/min/kg	53.4 µg/mL (≈ 140 µM)	4.09	–	–
O=C(Cc1n[nH]c2ccccc12)N1CCCO1	≤ 4.74 mL/min/kg	31.6 mL/min/kg	–	0.958	–	–
c1cc(-c2noc(CN3CCOCC3)n2)ccn1	≤ 4.74 mL/min/kg	29.8 mL/min/kg	–	0.732	–	–
Cc1cc(C(=O)NC(C)(C)C#N)nn1-c1ccc(F)cc1	≤ 4.74 mL/min/kg	19.7 mL/min/kg	–	1.35	–	–
Cc1[nH]c2ccc(Cl)cc2c1CC(=O)N1CCC(Cc2ncncc2C(N)=O)CC1	357 mL/min/kg	1170 mL/min/kg	46.5 µg/mL (≈ 109 µM)	18.6	–	–
CCCc1cc(O)nc(SCC(=O)N2CCN(C)CC2)n1	≤ 4.74 mL/min/kg	≤ 10.7 mL/min/kg	–	23.9	–	–
